Reference: ChEMBL document CHEMBL3286349 (Bioorg Med Chem Lett, 2014)
The source made the active and inactive calls. The rule behind the calls is not given here. Residues, ends and D or L forms follow the SMILES beside them.

Columns and labels:
[1] = molecular target: T1, Peroxisome proliferator-activated receptor alpha (Rattus norvegicus) (UniProt P37230); test: Agonist activity at PPARalpha in lipid loaded rat HII4E cells assessed as induction of fatty acid uptake at 1 uM after 24 hrs by flow cytometry analysis relative to control; format: cell-based
T1 sequence (whole entry): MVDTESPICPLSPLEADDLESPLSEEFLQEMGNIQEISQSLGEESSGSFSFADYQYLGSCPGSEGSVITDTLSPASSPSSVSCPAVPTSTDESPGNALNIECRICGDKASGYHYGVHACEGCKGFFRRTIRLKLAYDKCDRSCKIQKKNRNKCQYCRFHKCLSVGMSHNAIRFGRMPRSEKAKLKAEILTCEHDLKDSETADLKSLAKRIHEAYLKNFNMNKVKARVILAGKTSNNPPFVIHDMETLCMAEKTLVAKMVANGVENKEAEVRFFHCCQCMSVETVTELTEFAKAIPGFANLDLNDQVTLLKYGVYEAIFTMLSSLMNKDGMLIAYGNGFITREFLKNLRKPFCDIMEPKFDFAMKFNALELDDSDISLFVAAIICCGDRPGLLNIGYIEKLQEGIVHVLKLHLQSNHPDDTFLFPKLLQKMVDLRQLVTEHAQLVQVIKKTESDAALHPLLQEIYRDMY

[2] = molecular target: T1, Peroxisome proliferator-activated receptor alpha (Rattus norvegicus); test: Agonist activity at PPARalpha in lipid loaded rat HII4E cells assessed as reduction of intracellular cholesterol level at 100 uM after 24 hrs relative to control; format: cell-based; parameters: scale not given: the % may be the effect or the level left
[3] = molecular target: T1, Peroxisome proliferator-activated receptor alpha (Rattus norvegicus); test: Agonist activity at PPARalpha in lipid loaded rat HII4E cells assessed as reduction of intracellular triglyceride level at 500 uM after 24 hrs relative to control; format: cell-based; parameters: scale not given: the % may be the effect or the level left
[4] = molecular target: T1, Peroxisome proliferator-activated receptor alpha (Rattus norvegicus); test: Agonist activity at PPARalpha in lipid loaded rat HII4E cells assessed as induction of transcriptional activity at 500 uM after 24 hrs by qPCR analysis relative to control; format: cell-based
[5] = molecular target: T1, Peroxisome proliferator-activated receptor alpha (Rattus norvegicus); test: Agonist activity at PPARalpha in lipid loaded rat HII4E cells assessed as increase of acyl-CoA synthetase gene expression at 500 uM after 24 hrs by qPCR analysis relative to control; format: cell-based
[6] = Reduction of intracellular triglyceride level in lipid loaded rat HII4E cells expressing PPARalpha siRNA at 10 to 500 uM after 24 hrs; format: functional, cell-based
[7] = molecular target: T1, Peroxisome proliferator-activated receptor alpha (Rattus norvegicus); test: Agonist activity at PPARalpha in lipid loaded rat HII4E cells assessed as induction of fatty acid uptake at 100 to 500 uM after 24 hrs by flow cytometry analysis relative to control; format: cell-based
[8] = molecular target: T1, Peroxisome proliferator-activated receptor alpha (Rattus norvegicus); test: Agonist activity at PPARalpha in lipid loaded rat HII4E cells assessed as reduction of intracellular triglyceride level at 100 uM after 24 hrs relative to control; format: cell-based; parameters: scale not given: the % may be the effect or the level left
[9] = molecular target: T1, Peroxisome proliferator-activated receptor alpha (Rattus norvegicus); test: Agonist activity at PPARalpha in lipid loaded rat HII4E cells assessed as increase of FATP4 gene expression at 100 uM after 24 hrs by qPCR analysis relative to control; format: cell-based
[10] = molecular target: T1, Peroxisome proliferator-activated receptor alpha (Rattus norvegicus); test: Agonist activity at PPARalpha in lipid loaded rat HII4E cells assessed as increase of FATP4 gene expression at 500 uM after 24 hrs by qPCR analysis relative to control; format: cell-based
[11] = molecular target: T1, Peroxisome proliferator-activated receptor alpha (Rattus norvegicus); test: Agonist activity at PPARalpha in lipid loaded rat HII4E cells assessed as increase of ACOX gene expression at 500 uM after 24 hrs by qPCR analysis relative to control; format: cell-based
[12] = molecular target: T1, Peroxisome proliferator-activated receptor alpha (Rattus norvegicus); test: Agonist activity at PPARalpha in lipid loaded rat HII4E cells assessed as induction of transcriptional activity at 100 uM after 24 hrs by qPCR analysis relative to control; format: cell-based
[13] = molecular target: T1, Peroxisome proliferator-activated receptor alpha (Rattus norvegicus); test: Agonist activity at PPARalpha in lipid loaded rat HII4E cells assessed as reduction of intracellular cholesterol level at 500 uM after 24 hrs relative to control; format: cell-based; parameters: scale not given: the % may be the effect or the level left
[14] = molecular target: T2, Peroxisome proliferator-activated receptor alpha (Homo sapiens) (UniProt Q07869); test: Agonist activity at PPARalpha (unknown origin) expressed in CHOK1 cells assessed as induction of transactivation activity at 500 uM after 24 hrs by luciferase reporter gene assay relative to control; format: cell-based; details: CHO-K1
T2 sequence (whole entry): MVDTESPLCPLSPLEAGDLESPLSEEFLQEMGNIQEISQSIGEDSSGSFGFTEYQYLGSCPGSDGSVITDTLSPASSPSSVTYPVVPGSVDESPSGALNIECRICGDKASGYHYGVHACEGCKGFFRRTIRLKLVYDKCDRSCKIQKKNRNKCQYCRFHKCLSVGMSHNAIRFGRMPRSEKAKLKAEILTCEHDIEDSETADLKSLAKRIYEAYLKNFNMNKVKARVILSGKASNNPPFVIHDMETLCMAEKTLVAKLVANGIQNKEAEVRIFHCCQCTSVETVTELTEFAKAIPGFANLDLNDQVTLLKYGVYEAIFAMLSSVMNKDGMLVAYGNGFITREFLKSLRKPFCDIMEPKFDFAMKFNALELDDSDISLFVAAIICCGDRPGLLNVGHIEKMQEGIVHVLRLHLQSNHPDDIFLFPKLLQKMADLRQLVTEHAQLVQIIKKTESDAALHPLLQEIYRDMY

[15] = Reduction of intracellular cholesterol level in lipid loaded rat HII4E cells expressing PPARalpha siRNA at 10 to 500 uM after 24 hrs; format: functional, cell-based
[16] = molecular target: T3, Peroxisome proliferator-activated receptor alpha (Homo sapiens, UniProt Q07869); test: Binding affinity to PPARalpha LBD (unknown origin) by surface plasmon resonance assay
T3 sequence (Q07869 whole entry): T2 sequence (whole entry)

[17] = Reduction of intracellular cholesterol level in lipid loaded rat HII4E cells expressing PPARgamma siRNA after 24 hrs; format: functional, cell-based
[18] = molecular target: T1, Peroxisome proliferator-activated receptor alpha (Rattus norvegicus); test: Agonist activity at PPARalpha in lipid loaded rat HII4E cells assessed as increase of acyl-CoA synthetase gene expression at 100 uM after 24 hrs by qPCR analysis relative to control; format: cell-based
[19] = Reduction of intracellular triglyceride level in lipid loaded rat HII4E cells expressing PPARgamma siRNA after 24 hrs; format: functional, cell-based
[20] = molecular target: T1, Peroxisome proliferator-activated receptor alpha (Rattus norvegicus); test: Agonist activity at PPARalpha in lipid loaded rat HII4E cells assessed as reduction of intracellular cholesterol level after 24 hrs; format: cell-based
[21] = molecular target: T2, Peroxisome proliferator-activated receptor alpha (Homo sapiens); test: Agonist activity at PPARalpha (unknown origin) expressed in CHOK1 cells assessed as induction of transactivation activity at 100 uM after 24 hrs by luciferase reporter gene assay relative to control; format: cell-based; details: CHO-K1
[22] = molecular target: T1, Peroxisome proliferator-activated receptor alpha (Rattus norvegicus); test: Agonist activity at PPARalpha in lipid loaded rat HII4E cells assessed as increase of CPT1 gene expression at 500 uM after 24 hrs by qPCR analysis relative to control; format: cell-based
[23] = molecular target: T3, Peroxisome proliferator-activated receptor alpha; test: Agonist activity at PPARalpha LBD (unknown origin) assessed as induction of PGC1alpha co-activator activity by TR-FRET analysis

Q: For CC(C)(Sc1ccc(CCN(CCCCC2CCCCC2)C(=O)NC2CCCCC2)cc1)C(=O)O, which Activity [1] is on record?
A: The Activity was “Active”.

Q: Which results are given for N[C@@H](Cc1c[nH]c2ccccc12)C(=O)N[C@@H](CCC(=O)O)C(=O)O (H-Trp-Glu-OH)?
A: Activity [2]: 14%; Activity [3]: 16%; fold change (FC) [4]: 1.9; fold change (FC) [5]: 1.5; Activity [6]: inactive; fold change (FC) [7]: 1.2; Activity [8]: 14%; fold change (FC) [9]: 1.6; fold change (FC) [10]: 1.7; fold change (FC) [11]: 1.4; fold change (FC) [12]: 1.8; Activity [13]: 21%; Activity [14]: 62%; Activity [15]: inactive; Kd [16]: 120 µM; Activity [17]: Dose-dependent effect; fold change (FC) [18]: 1.4; Activity [19]: Dose-dependent effect; Activity [20]: Dose-dependent effect; Activity [21]: 53%; fold change (FC) [22]: 1.6; EC50 [23]: 83.4 µM
